Results on 4 molecules are retold here after patent publication US20030139469A1, “Use of inhibitors of soluble epoxide hydrolase to inhibit vascular smooth muscle cell proliferation” (THE REGENTS OF THE UNIVERSITY OF CALIFORNIA, priority 2002, published 2003).

Entries after “also recorded” stand apart in the source; their conditions may differ.

Data set [1] concerns soluble epoxide hydrolase (sEH). The conditions noted are these: cited from earlier work.
Another data set deals with porcine aortic VSM cells. The following applies: 14,15-EET 2 μM, chalcone oxide with PDGF and exogenous EETs; cited from earlier work.
A further data set can be described thus: metabolic stability. The format is in vitro ADME.
In data set [2] the test system is soluble epoxide hydrolase (sEH). As to the kind of experiment: inhibition of soluble epoxide hydrolase. The format is biochemical, human. The text has this:
Epoxide hydrolases (“EH;” EC 3.3.2.3) are enzymes in the alpha beta hydrolase fold family that add water to 3 membered cyclic ethers termed epoxides. Soluble epoxide hydrolase (sEH) is an enzyme which in endothelial and smooth muscle cells converts EETs to dihydroxy derivatives called dihydroxyeicosatrienoic acids (DHETs). The cloning and sequence of the murine sEH is set forth in Grant et al., J. Biol. Chem. 268(23):17628-17633 (1993). The cloning, sequence, and accession numbers of the human sEH sequence are set forth in Beetham et al., Arch. Biochem. Biophys. 305(1): 197-201 (1993). The evolution and nomenclature of the gene is discussed in Beetham et al., DNA Cell Biol. 14(1):61-71 (1995). Unless otherwise specified, as used herein, the terms “soluble epoxide hydrolase” and “sEH” refer to human sEH. Derivatives of urea are transition state mimetics that form a preferred group of sEH inhibitors. […] Any particular urea derivative or other compound can be easily tested for its ability to inhibit sEH by standard assays, such as the one used in the Examples herein. […] The enzyme also can be detected based on the binding of specific ligands to the catalytic site which either immobilize the enzyme or label it with a probe such as luciferase, green fluorescent protein or other reagent. […]

Data set [3] concerns spontaneously hypertensive rats. The following applies: injection; cited from earlier work.

On to `O=C(c1ccccc1)C1OC1c1ccc(-c2ccccc2)cc1` (stereo not drawn) [4-phenylchalcone oxide, reference compound], for which the “in vitro inhibition of epoxide hydrolases” value in data set [1] is listed as “potent”. For the same molecule, the “PDGF-mediated DNA synthesis / mitogenesis” value in the data set with porcine aortic VSM cells is listed as “additive increase in mitogenesis”.
For `CCCCCC1OC1C/C=C\C/C=C\C/C=C\CCCC(=O)O` (stereo not drawn) [14,15-EET], the “PDGF-mediated DNA synthesis / mitogenesis” value with porcine aortic VSM cells is “increase PDGF-mediated DNA synthesis”.
As for `CCCCCCCCCCCCNC(=O)NC12CC3CC(CC(C3)C1)C2` [ADU, N-adamantyl-N′-dodecyl urea], the metabolic stability result in the data set “metabolic stability” is recorded as “metabolically stable”. The “activity as an inhibitor of sEH” value in data set [2] was “particularly high activity”.
On to `O=C(NC1CCCCC1)NC1CCCCC1` [DCU, N,N′-dicyclohexylurea], for which the systemic blood pressure entry in data set [3] is listed as “lowering of blood pressure; also recorded: lower systemic blood pressure”.
